Assay results: PubChem BioAssay (NCI)
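Following 48 hours of exposure in 96-well plates, responses at five concentrations were used to interpolate endpoints linearly. TGI: total growth inhibition.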

How the values were obtained:
Test in all cases: growth of human tumour cells (NCI), 48 h
UACC-257 melanoma = tested on: UACC-257 melanoma
A549 NSCLC = tested on: A549 NSCLC
MDA-MB-435 = tested on: MDA-MB-435
EKVX NSCLC = tested on: EKVX NSCLC
HT29 colon = tested on: HT29 colon
A498 renal = tested on: A498 renal
MCF7 breast = tested on: MCF7 breast
OVCAR-8 ovarian = tested on: OVCAR-8 ovarian
MALME-3M melanoma = tested on: MALME-3M melanoma
DU-145 prostate = tested on: DU-145 prostate
SW-620 colon = tested on: SW-620 colon
MDA-N = tested on: MDA-N
HS 578T breast = tested on: HS 578T breast
SNB-75 CNS = tested on: SNB-75 CNS
SF-295 CNS = tested on: SF-295 CNS
PC-3 prostate = tested on: PC-3 prostate
OVCAR-4 ovarian = tested on: OVCAR-4 ovarian
UACC-62 melanoma = tested on: UACC-62 melanoma
MOLT-4 leukemia = tested on: MOLT-4 leukemia
NCI-H226 lung = tested on: NCI-H226 lung
LOX IMVI melanoma = tested on: LOX IMVI melanoma
SNB-19 CNS = tested on: SNB-19 CNS
HOP-92 NSCLC = tested on: HOP-92 NSCLC
SR leukemia = tested on: SR leukemia
SN12C renal = tested on: SN12C renal
SK-OV-3 ovarian = tested on: SK-OV-3 ovarian
IGROV1 ovarian = tested on: IGROV1 ovarian
SK-MEL-2 melanoma = tested on: SK-MEL-2 melanoma
U251 CNS = tested on: U251 CNS
MDA-MB-231 breast = tested on: MDA-MB-231 breast
RPMI-8226 leukemia = tested on: RPMI-8226 leukemia
ACHN renal = tested on: ACHN renal
786-0 renal = tested on: 786-0 renal
SK-MEL-28 melanoma = tested on: SK-MEL-28 melanoma
TK-10 renal = tested on: TK-10 renal
CCRF-CEM leukemia = tested on: CCRF-CEM leukemia
NCI/ADR-RES ovarian = tested on: NCI/ADR-RES ovarian
OVCAR-5 ovarian = tested on: OVCAR-5 ovarian
NCI-H23 lung = tested on: NCI-H23 lung
HOP-62 NSCLC = tested on: HOP-62 NSCLC
M14 melanoma = tested on: M14 melanoma
HCT-116 colon = tested on: HCT-116 colon
UO-31 renal = tested on: UO-31 renal
COLO 205 colon = tested on: COLO 205 colon
HCT-15 colon = tested on: HCT-15 colon
K-562 leukemia = tested on: K-562 leukemia
SF-268 CNS = tested on: SF-268 CNS
SK-MEL-5 melanoma = tested on: SK-MEL-5 melanoma
OVCAR-3 ovarian = tested on: OVCAR-3 ovarian
KM12 colon = tested on: KM12 colon
CAKI-1 renal = tested on: CAKI-1 renal
SF-539 CNS = tested on: SF-539 CNS
NCI-H460 lung = tested on: NCI-H460 lung
BT-549 breast = tested on: BT-549 breast
RXF 393 renal = tested on: RXF 393 renal
NCI-H522 lung = tested on: NCI-H522 lung
HCC-2998 colon = tested on: HCC-2998 colon
HL-60(TB) leukemia = tested on: HL-60(TB) leukemia
T-47D breast = tested on: T-47D breast

`O=C1/C(=C/c2cccs2)NC(=S)N1CN1CCCC(CO)C1` (stereo not drawn) showed a TGI (UACC-257 melanoma) greater than 100 µM, a TGI (A549 NSCLC) greater than 100 µM and a TGI (MDA-MB-435) greater than 100 µM. For the same molecule, the TGI (EKVX NSCLC) was greater than 100 µM, the TGI (HT29 colon) was greater than 100 µM and the TGI (A498 renal) was greater than 100 µM. The TGI (MCF7 breast) was greater than 100 µM, the TGI (OVCAR-8 ovarian) was greater than 100 µM and the TGI (MALME-3M melanoma) was greater than 100 µM. For the same molecule, the TGI (DU-145 prostate) was greater than 100 µM, the TGI (SW-620 colon) was greater than 100 µM and the TGI (MDA-N) was greater than 100 µM. The TGI (HS 578T breast) was greater than 100 µM, the TGI (SNB-75 CNS) was greater than 100 µM and the TGI (SF-295 CNS) was greater than 100 µM. The TGI (PC-3 prostate) was greater than 100 µM, the TGI (OVCAR-4 ovarian) was greater than 100 µM and the TGI (UACC-62 melanoma) was greater than 100 µM. For the same molecule, the TGI (MOLT-4 leukemia) was greater than 100 µM, the TGI (NCI-H226 lung) was greater than 100 µM and the TGI (LOX IMVI melanoma) was greater than 100 µM. The TGI (SNB-19 CNS) was greater than 100 µM, the TGI (HOP-92 NSCLC) was greater than 100 µM and the TGI (SR leukemia) was greater than 100 µM. It also gave a TGI (SN12C renal) greater than 100 µM, a TGI (SK-OV-3 ovarian) greater than 100 µM and a TGI (IGROV1 ovarian) greater than 100 µM. It also gave a TGI (SK-MEL-2 melanoma) greater than 100 µM, a TGI (U251 CNS) greater than 100 µM and a TGI (MDA-MB-231 breast) greater than 100 µM. For the same molecule, the TGI (RPMI-8226 leukemia) was greater than 100 µM, the TGI (ACHN renal) was greater than 100 µM and the TGI (786-0 renal) was greater than 100 µM. For the same molecule, the TGI (SK-MEL-28 melanoma) was greater than 100 µM, the TGI (TK-10 renal) was greater than 100 µM and the TGI (CCRF-CEM leukemia) was greater than 100 µM. The TGI (NCI/ADR-RES ovarian) was greater than 100 µM, the TGI (OVCAR-5 ovarian) was greater than 100 µM and the TGI (NCI-H23 lung) was greater than 100 µM. It also gave a TGI (HOP-62 NSCLC) greater than 100 µM, a TGI (M14 melanoma) greater than 100 µM and a TGI (HCT-116 colon) greater than 100 µM. For the same molecule, the TGI (UO-31 renal) was greater than 100 µM, the TGI (COLO 205 colon) was greater than 100 µM and the TGI (HCT-15 colon) was greater than 100 µM. It also gave a TGI (K-562 leukemia) greater than 100 µM, a TGI (SF-268 CNS) greater than 100 µM and a TGI (SK-MEL-5 melanoma) greater than 100 µM. For the same molecule, the TGI (OVCAR-3 ovarian) was greater than 100 µM and the TGI (KM12 colon) was greater than 100 µM.

`BrCC(Br)(c1ccccc1)c1ccccc1-c1cc(-c2ccccc2)cc(-c2ccccc2)n1` (stereo not drawn) was tested, and the TGI (CAKI-1 renal) was 23.4 µM, the TGI (UACC-257 melanoma) was 8.92 µM and the TGI (A549 NSCLC) was 25.5 µM. For the same molecule, the TGI (MDA-MB-435) was 4.63 µM, the TGI (EKVX NSCLC) was greater than 100 µM and the TGI (HT29 colon) was 6.65 µM. The TGI (A498 renal) was 15.6 µM, the TGI (MCF7 breast) was 4.12 µM and the TGI (OVCAR-8 ovarian) was 16.7 µM. For the same molecule, the TGI (MALME-3M melanoma) was 16.4 µM, the TGI (DU-145 prostate) was greater than 45.5 µM and the TGI (SW-620 colon) was 14.2 µM. It also gave a TGI (MDA-N) of 10.9 µM, a TGI (HS 578T breast) of 26 µM and a TGI (SNB-75 CNS) of 4.08 µM. It also gave a TGI (SF-295 CNS) of 8.92 µM, a TGI (PC-3 prostate) of 10.6 µM and a TGI (OVCAR-4 ovarian) of 53.9 µM. The TGI (SF-539 CNS) was 19 µM, the TGI (MOLT-4 leukemia) was 17.3 µM and the TGI (NCI-H226 lung) was 15.1 µM. It also gave a TGI (LOX IMVI melanoma) of 5.88 µM, a TGI (SNB-19 CNS) of 31.9 µM and a TGI (HOP-92 NSCLC) of 11.4 µM. The TGI (SR leukemia) was greater than 52.7 µM, the TGI (SN12C renal) was 28 µM and the TGI (IGROV1 ovarian) was 19.4 µM. It also gave a TGI (SK-MEL-2 melanoma) of 5.47 µM, a TGI (NCI-H460 lung) of 11.9 µM and a TGI (U251 CNS) of 5.85 µM. The TGI (MDA-MB-231 breast) was 11.4 µM, the TGI (RPMI-8226 leukemia) was 18.2 µM and the TGI (BT-549 breast) was 10.1 µM. It also gave a TGI (ACHN renal) of 23.9 µM, a TGI (786-0 renal) of 13.8 µM and a TGI (SK-MEL-28 melanoma) of 25.3 µM. It also gave a TGI (TK-10 renal) of 21.5 µM, a TGI (CCRF-CEM leukemia) greater than 53.3 µM and a TGI (NCI/ADR-RES ovarian) greater than 100 µM. For the same molecule, the TGI (OVCAR-5 ovarian) was 8.35 µM, the TGI (NCI-H23 lung) was 36 µM and the TGI (HOP-62 NSCLC) was 23.2 µM. For the same molecule, the TGI (RXF 393 renal) was 5.92 µM, the TGI (NCI-H522 lung) was 10.5 µM and the TGI (M14 melanoma) was 21.6 µM. For the same molecule, the TGI (HCT-116 colon) was 12.3 µM, the TGI (UO-31 renal) was 26.8 µM and the TGI (COLO 205 colon) was 2.81 µM. For the same molecule, the TGI (HCT-15 colon) was 30 µM, the TGI (K-562 leukemia) was 8.69 µM and the TGI (HCC-2998 colon) was 9.8 µM. For the same molecule, the TGI (SF-268 CNS) was 8.5 µM, the TGI (SK-MEL-5 melanoma) was 3.82 µM and the TGI (HL-60(TB) leukemia) was 2.33 µM. It also gave a TGI (KM12 colon) of 12.6 µM.

Molecule `COC(=O)c1c2c(cc3c1CC1(Cc4cc5c(cc4C1)CCC5)C3)CCC2` has a TGI (CAKI-1 renal) greater than 100 µM, a TGI (UACC-257 melanoma) greater than 100 µM and a TGI (A549 NSCLC) greater than 100 µM. It also gave a TGI (MDA-MB-435) greater than 100 µM, a TGI (EKVX NSCLC) greater than 100 µM and a TGI (HT29 colon) greater than 100 µM. The TGI (A498 renal) was greater than 100 µM, the TGI (MCF7 breast) was greater than 100 µM and the TGI (OVCAR-8 ovarian) was greater than 100 µM. It also gave a TGI (MALME-3M melanoma) greater than 100 µM, a TGI (DU-145 prostate) greater than 100 µM and a TGI (SW-620 colon) greater than 100 µM. The TGI (MDA-N) was greater than 100 µM, the TGI (HS 578T breast) was greater than 100 µM and the TGI (SNB-75 CNS) was greater than 100 µM. For the same molecule, the TGI (SF-295 CNS) was greater than 100 µM, the TGI (PC-3 prostate) was greater than 100 µM and the TGI (OVCAR-4 ovarian) was greater than 100 µM. The TGI (SF-539 CNS) was greater than 100 µM, the TGI (MOLT-4 leukemia) was greater than 100 µM and the TGI (LOX IMVI melanoma) was greater than 100 µM. It also gave a TGI (SNB-19 CNS) greater than 100 µM, a TGI (HOP-92 NSCLC) greater than 100 µM and a TGI (SR leukemia) greater than 100 µM. For the same molecule, the TGI (SK-OV-3 ovarian) was greater than 100 µM, the TGI (IGROV1 ovarian) was greater than 100 µM and the TGI (SK-MEL-2 melanoma) was greater than 100 µM. The TGI (NCI-H460 lung) was greater than 100 µM, the TGI (T-47D breast) was greater than 100 µM and the TGI (U251 CNS) was greater than 100 µM. The TGI (MDA-MB-231 breast) was greater than 100 µM, the TGI (RPMI-8226 leukemia) was greater than 100 µM and the TGI (ACHN renal) was greater than 100 µM. The TGI (786-0 renal) was greater than 100 µM, the TGI (SK-MEL-28 melanoma) was greater than 100 µM and the TGI (TK-10 renal) was greater than 100 µM. For the same molecule, the TGI (CCRF-CEM leukemia) was greater than 100 µM, the TGI (NCI/ADR-RES ovarian) was greater than 100 µM and the TGI (OVCAR-5 ovarian) was greater than 100 µM. For the same molecule, the TGI (NCI-H23 lung) was greater than 100 µM, the TGI (HOP-62 NSCLC) was greater than 100 µM and the TGI (RXF 393 renal) was greater than 100 µM. It also gave a TGI (NCI-H522 lung) greater than 100 µM, a TGI (M14 melanoma) greater than 100 µM and a TGI (HCT-116 colon) greater than 100 µM. For the same molecule, the TGI (UO-31 renal) was greater than 100 µM, the TGI (HCT-15 colon) was greater than 100 µM and the TGI (K-562 leukemia) was greater than 100 µM. It also gave a TGI (HCC-2998 colon) greater than 100 µM, a TGI (SF-268 CNS) greater than 100 µM and a TGI (SK-MEL-5 melanoma) greater than 100 µM. The TGI (HL-60(TB) leukemia) was greater than 100 µM and the TGI (OVCAR-3 ovarian) was greater than 100 µM.
